# Results as given in PMC6198068, “Discovery of a Novel Nav1.7 Inhibitor From Cyriopagopus albostriatus Venom With Potent Analgesic Efficacy” (Frontiers in Pharmacology, 2018).
# Where a SMILES comes first, the peptide text is derived from it. Bridges are numbered along the chain shown (N, C = ends).
# Assays:
# Nav1.7 = biological target: T1, Nav1.7 (Homo sapiens, UniProt Q15858); test: Steady-state slow inactivation of Nav1.7; assay type: cell-based; conditions: 0.2 μM; 15 s pre-pulses; control −52.62 ± 3.79 mV; P < 0.01 paired t-test; mean ± SEM, n = 6–11 cells
# T1 construct: expressed in transfected cells; host or cells: HEK293T
# T1 sequence (O60939 30-215): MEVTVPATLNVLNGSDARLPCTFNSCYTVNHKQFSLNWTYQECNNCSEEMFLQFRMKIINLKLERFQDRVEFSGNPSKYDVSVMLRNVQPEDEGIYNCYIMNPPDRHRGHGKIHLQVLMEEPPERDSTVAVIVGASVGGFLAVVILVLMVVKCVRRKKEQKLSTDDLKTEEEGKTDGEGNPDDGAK
# T1 sequence (Q15858 other isoform, or with tags, fused parts or gaps): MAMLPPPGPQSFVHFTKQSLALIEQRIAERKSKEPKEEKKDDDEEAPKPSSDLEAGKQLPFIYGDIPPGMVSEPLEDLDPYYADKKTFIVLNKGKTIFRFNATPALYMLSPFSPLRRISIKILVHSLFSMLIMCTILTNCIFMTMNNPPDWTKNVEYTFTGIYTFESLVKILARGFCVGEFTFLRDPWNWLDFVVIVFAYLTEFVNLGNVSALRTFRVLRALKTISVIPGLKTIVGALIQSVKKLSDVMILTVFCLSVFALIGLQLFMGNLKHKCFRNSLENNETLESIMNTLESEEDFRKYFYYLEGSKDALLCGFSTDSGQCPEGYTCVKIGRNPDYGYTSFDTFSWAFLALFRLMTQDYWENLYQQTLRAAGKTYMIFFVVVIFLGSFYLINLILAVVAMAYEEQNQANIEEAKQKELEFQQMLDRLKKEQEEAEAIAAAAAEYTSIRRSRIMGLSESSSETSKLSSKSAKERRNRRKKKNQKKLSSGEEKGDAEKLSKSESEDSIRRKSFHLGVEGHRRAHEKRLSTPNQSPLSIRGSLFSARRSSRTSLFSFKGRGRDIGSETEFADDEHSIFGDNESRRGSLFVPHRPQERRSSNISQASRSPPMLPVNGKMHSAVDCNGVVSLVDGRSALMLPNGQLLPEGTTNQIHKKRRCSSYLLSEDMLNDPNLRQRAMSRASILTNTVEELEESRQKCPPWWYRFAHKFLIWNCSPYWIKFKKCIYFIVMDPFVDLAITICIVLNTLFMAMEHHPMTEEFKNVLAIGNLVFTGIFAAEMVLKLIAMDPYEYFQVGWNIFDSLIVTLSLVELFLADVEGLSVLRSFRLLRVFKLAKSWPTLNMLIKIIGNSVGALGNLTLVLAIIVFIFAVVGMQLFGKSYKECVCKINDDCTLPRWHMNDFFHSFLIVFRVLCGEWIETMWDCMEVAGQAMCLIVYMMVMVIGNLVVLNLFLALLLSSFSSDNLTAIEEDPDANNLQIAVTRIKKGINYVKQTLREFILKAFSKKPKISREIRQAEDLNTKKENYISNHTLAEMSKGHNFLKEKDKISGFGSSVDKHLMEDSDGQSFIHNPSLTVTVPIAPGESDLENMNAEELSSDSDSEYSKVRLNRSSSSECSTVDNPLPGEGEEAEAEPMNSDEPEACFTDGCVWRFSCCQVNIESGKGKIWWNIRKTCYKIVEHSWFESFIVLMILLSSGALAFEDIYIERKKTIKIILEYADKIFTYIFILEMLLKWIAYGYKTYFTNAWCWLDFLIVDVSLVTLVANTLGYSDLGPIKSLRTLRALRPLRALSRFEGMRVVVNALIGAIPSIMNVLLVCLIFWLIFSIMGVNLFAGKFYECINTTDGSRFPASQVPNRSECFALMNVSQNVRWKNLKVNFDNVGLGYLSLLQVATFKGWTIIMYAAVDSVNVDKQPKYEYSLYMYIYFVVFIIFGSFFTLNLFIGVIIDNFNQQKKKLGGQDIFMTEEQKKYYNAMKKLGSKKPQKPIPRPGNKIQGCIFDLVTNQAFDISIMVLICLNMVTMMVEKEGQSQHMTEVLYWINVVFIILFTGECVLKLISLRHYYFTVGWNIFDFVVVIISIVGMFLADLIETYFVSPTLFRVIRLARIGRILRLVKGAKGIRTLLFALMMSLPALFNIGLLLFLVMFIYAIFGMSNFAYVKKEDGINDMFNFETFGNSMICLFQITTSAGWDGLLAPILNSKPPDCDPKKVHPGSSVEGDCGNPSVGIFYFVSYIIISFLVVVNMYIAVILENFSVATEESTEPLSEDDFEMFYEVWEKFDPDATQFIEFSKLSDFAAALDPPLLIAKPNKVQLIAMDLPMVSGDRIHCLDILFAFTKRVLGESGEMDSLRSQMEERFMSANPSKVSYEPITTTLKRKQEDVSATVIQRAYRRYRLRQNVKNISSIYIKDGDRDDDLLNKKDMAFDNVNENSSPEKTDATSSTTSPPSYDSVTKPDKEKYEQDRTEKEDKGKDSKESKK
# T1 sequence (Q07699 19-218, further chain): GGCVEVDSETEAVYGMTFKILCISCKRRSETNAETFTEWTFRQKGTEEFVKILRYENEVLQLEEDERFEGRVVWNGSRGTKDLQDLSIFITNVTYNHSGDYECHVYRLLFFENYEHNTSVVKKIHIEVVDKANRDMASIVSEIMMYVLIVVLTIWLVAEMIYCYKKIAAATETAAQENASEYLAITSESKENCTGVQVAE
# Source text: (§1) The cDNA genes encoding rat Nav1.4 and human Nav1.7 were subcloned into vectors pRGB4 and pcDNA3.1-mod, respectively. Mutations of rNav1.4 (N655D, Q657E, and N655D/Q657E) and hNav1.7 (D816N, E818Q, and D816N/E818Q) were constructed using the Gene Tailor Site-Directed Mutagenesis system (Invitrogen, Carlsbad, CA, United States), according to the manufacturer’s instructions. Nav1.2–Nav1.7 and mutant plasmids together with eGFP were transiently transfected into HEK293T cells while Nav1.8 together with eGFP was transiently transfected into ND7/23 cells by Lipofectamine 2000 (Invitrogen, Carlsbad, CA, United States). […] Cells with green fluorescent protein fluorescence were selected for whole-cell patch-clamp recordings 24 h after transfection.
# (§2) Whole-cell patch-clamp recordings were performed at room temperature (20–25°C) using an EPC 10 USB Patch Clamp Amplifier (HEKA, Elektronik, Lambrecht, Germany). […] Data was analyzed by software Igo Pro 6.10A (WaveMetrics, Lake Oswego, OR, United States), SigmaPlot 10.0 (Sigma-Aldrich, St. Louis, MO, United States), OriginPro 8 (OriginLab Corp., Northampton, MA, United States), and GraphPad Prism 5 (GraphPad Software, San Diego, CA, United States). […]
# Fast inactivation time constants were calculated by fitting current decay traces with a single exponential function using the I–V protocol described above. […]
# Nav1.7/D816N = biological target: T2, Nav1.7/D816N (Homo sapiens, UniProt Q15858, D827N); test: Time course of Nav1.7/D816N inhibition and recovery upon washing; assay type: cell-based; conditions: 1 μM, n = 4
# T2 construct: expressed in transfected cells; host or cells: HEK293T
# T2 sequence (O60939 30-215): as the sequence (O60939 30-215) above
# T2 sequence (Q07699 19-218, further chain): as the sequence (Q07699 19-218, further chain) above
# T2 sequence (Q15858 other isoform, or with tags, fused parts or gaps D816N): as the sequence (Q15858 other isoform, or with tags, fused parts or gaps) above, with D816N counted along it
# Source text: as §1, with “States). Additionally, plasmids β1- and β2-eGFP encoding the human β1 and β2 subunits, respectively, were co-transfected with those encoding WT Nav1.7 and Nav1.7 mutations in HEK293T cells.” for “States).”
# as §2
# [1] = test system: formalin-induced paw licking in mice; test: Formalin-induced paw licking; assay type: in vivo, ICR mice; conditions: for paw licking time, Phase I: control 90.3 ± 6.6 s; for paw licking time, Phase I / paw licking time, Phase II: mean ± SEM, n = 6–8; for paw licking time, Phase II: control 197.7 ± 20.7 s
# Description: The ICR mice (18–22 g) used in this study were purchased from the Experimental Animal Center of SLac-kinda (Changsha, China). The animals were maintained at 20–25°C and freely allowed to standard rodent chow and water ad libitum. Ethical approval for in vivo experiments in animals was approved by the Animal Care and Use Committee (ACUC) at the Hunan Province Animal Management Office (HPAMO).
# A formalin test was performed according to the previous method ([Owoyele et al., 2005]). […] The time spent licking the injected paw by each mouse was recorded by a digital stopwatch during Phase I (0–15 min post-injection) and Phase II (15–40 min post-injection).
smiles,measurement,setting,value
"CC(C)C[C@H](NC(=O)[C@H](CC(=O)O)NC(=O)[C@H](Cc1ccc(O)cc1)NC(=O)[C@H](CCCCN)NC(=O)[C@@H]1CSSC[C@@H]2NC(=O)[C@H](CCCCN)NC(=O)[C@H](CC(=O)O)NC(=O)[C@H](CC(N)=O)NC(=O)[C@H](CO)NC(=O)[C@@H]3CCCN3C(=O)[C@H](CC(N)=O)NC(=O)[C@@H]3CSSC[C@H](NC(=O)[C@H](C(C)C)NC(=O)[C@H](CC(C)C)NC(=O)[C@H](CO)NC(=O)[C@H](CO)NC(=O)[C@H](CO)NC(=O)[C@H](CCCCN)NC(=O)[C@H](CSSC[C@H](NC(=O)[C@H](C)N)C(=O)N[C@@H](CC(C)C)C(=O)NCC(=O)N[C@@H](Cc4ccccc4)C(=O)NCC(=O)N[C@@H](CCC(=O)O)C(=O)N[C@@H](CCCCN)C(=O)N3)NC2=O)C(=O)N[C@@H](CO)C(=O)N[C@@H](CCC(N)=O)C(=O)N[C@@H](CCCCN)C(=O)N[C@@H](Cc2c[nH]cn2)C(=O)N[C@@H](CCCCN)C(=O)N[C@@H](Cc2c[nH]c3ccccc23)C(=O)N1)C(=O)O [Ca2a] (H-ACLGFGEKCNPSNDKCCKSSSLVCSQKHKWCKYDL-OH; disulfide 2-17, 9-24, 16-31 (inferred); N-terminus and C-terminus assumed)",steady-state slow inactivation potential of Nav1.7,Nav1.7,−72.00 ± 2.76 mV
same,recovery of Nav1.7/D816N current on washout,Nav1.7/D816N; extended washout,did not recover
same,"τon, Nav1.7/D816N",Nav1.7/D816N,18.4 ± 1.3 s
same,"paw licking time, Phase I","[1]; 0–15 min, 50 μg/kg i.p. 30 min before 5% formalin",80.1 ± 4.6 s
same,"paw licking time, Phase I","[1]; 0–15 min, 100 μg/kg i.p. 30 min before 5% formalin",79.4 ± 9.5 s
same,"paw licking time, Phase I","[1]; 0–15 min, 200 μg/kg i.p. 30 min before 5% formalin",75.6 ± 7.7 s
same,analgesic effect on Phase I compared to control,"[1]; 0–15 min, Ca2a 50, 100, 200 μg/kg, morphine 100 μg/kg, i.p.",no analgesic effect
same,"paw licking time, Phase II","[1]; 15–40 min, 50 μg/kg i.p. 30 min before 5% formalin",100.9 ± 16.2 s
same,"paw licking time, Phase II","[1]; 15–40 min, 100 μg/kg i.p. 30 min before 5% formalin",67.2 ± 20.2 s
same,"paw licking time, Phase II","[1]; 15–40 min, 200 μg/kg i.p. 30 min before 5% formalin",40.5 ± 7.1 s
same,analgesic effect on Phase II,"[1]; 15–40 min, 50, 100, 200 μg/kg i.p.",significant analgesic effect in a dose-dependent manner
same,"analgesia relative to morphine, formalin test","[1]; formalin, hot plate and writhing together, Ca2a vs morphine",dose-dependently equipotent or stronger analgesia than morphine
